From ChEMBL document CHEMBL1921801, “Discovery and optimization of 2-phenyloxazole derivatives as diacylglycerol acyltransferase-1 inhibitors” (Bioorg Med Chem Lett, 2011)
≈ marks a conversion by molar mass, not a printed value. Calls of active or inactive are those of the source. No cut-off for these calls is given here.

Legend:
[1] = Solubility of the compound; type: physicochemical
[2] = tested on: Rattus norvegicus; assay: Antiobesity activity in diet induced obese Sprague-Dawley rat model assessed as reduction in weight gain at 25 mg/kg, po qd for 3 weeks measured on day 21 relative to vehicle treated control; type: functional; design: scale not given: the % may be the effect or the level left
[3] = Kinetic solubility of the compound in phosphate buffered saline at pH 6.5; type: physicochemical; settings: read-out: Kinetic_solubility
[4] = species on record: Cavia porcellus; assay: Cardiotoxicity in guinea pig Langendorff heart model assessed as QT prolongation at >= 0.47 uM; type: toxicity
[5] = AUC in Wistar rat at 50 mg/kg, po; type: ADME, organism-based; design: dose 50 mg/kg, route oral; settings: plasma
[6] = tested on: Rattus norvegicus; assay: Cmax in Wistar rat at 50 mg/kg, po; type: ADME, organism-based; design: dose 50 mg/kg, route oral; settings: in vivo
[7] = Volume of distribution in Wistar rat at 5 mg/kg, iv; type: ADME, organism-based; design: dose 5 mg/kg, route intravenous; settings: in vivo
[8] = tested on: Rattus norvegicus; assay: Antiobesity activity in diet induced obese Sprague-Dawley rat model assessed as reduction in weight gain at 50 mg/kg, po qd for 3 weeks measured on day 21 relative to vehicle treated control; type: functional; design: scale not given: the % may be the effect or the level left
[9] = Solubility of the compound in simulated gastric fluid; type: physicochemical
[10] = Cmax in diet induced obese Sprague-Dawley rat model at 25 mg/kg, po qd for 3 weeks measured on day 21; type: ADME, organism-based; design: dose 25 mg/kg, route oral; settings: in vivo
[11] = tested on: Rattus norvegicus; assay: Antiobesity activity in diet induced obese Sprague-Dawley rat model assessed as reduction in plasma triglycerides level at 50 mg/kg, po qd for 3 weeks measured on day 21 relative to vehicle treated control; type: functional; design: scale not given: the % may be the effect or the level left
[12] = Fraction unbound in human serum; type: ADME, cell-free
[13] = tested on: Rattus norvegicus; assay: Antiobesity activity in diet induced obese Sprague-Dawley rat model assessed as reduction in plasma free fatty acid level at 50 mg/kg, po qd for 3 weeks measured on day 21; type: functional, organism-based; design: dose 50 mg/kg
[14] = tested on: Rattus norvegicus; assay: Toxicity in diet induced obese Sprague-Dawley rat model assessed as change in kidney weight administered orally after 22 days; type: organism-based; settings: in vivo, po, 528 h
[15] = tested on: Rattus norvegicus; assay: Toxicity in diet induced obese Sprague-Dawley rat model assessed as change in liver enzyme activity administered orally after 22 days; type: organism-based; settings: in vivo, po, 528 h
[16] = tested on: Rattus norvegicus; assay: Toxicity in diet induced obese Sprague-Dawley rat model assessed as change in brain weight administered orally after 22 days; type: organism-based; settings: in vivo, po, 528 h
[17] = tested on: Rattus norvegicus; assay: Antiobesity activity in diet induced obese Sprague-Dawley rat model assessed as decrease in lean muscle at 50 mg/kg, po qd for 3 weeks measured on day 21 relative to vehicle treated control; type: functional, organism-based; design: dose 50 mg/kg
[18] = Cmax in diet induced obese Sprague-Dawley rat model at 5 mg/kg, po qd for 3 weeks measured on day 21; type: ADME, organism-based; design: dose 5 mg/kg, route oral; settings: in vivo
[19] = AUC in Wistar rat at 5 mg/kg, iv; type: ADME, organism-based; design: dose 5 mg/kg, route intravenous; settings: plasma
[20] = Tmax in Wistar rat at 50 mg/kg, po; type: ADME, organism-based; design: dose 50 mg/kg, route oral; settings: in vivo
[21] = biological target: T1, Diacylglycerol O-acyltransferase 1 (Rattus norvegicus, UniProt Q9ERM3); assay: Inhibition of rat DGAT1
T1 sequence (Q9ERM3 whole entry): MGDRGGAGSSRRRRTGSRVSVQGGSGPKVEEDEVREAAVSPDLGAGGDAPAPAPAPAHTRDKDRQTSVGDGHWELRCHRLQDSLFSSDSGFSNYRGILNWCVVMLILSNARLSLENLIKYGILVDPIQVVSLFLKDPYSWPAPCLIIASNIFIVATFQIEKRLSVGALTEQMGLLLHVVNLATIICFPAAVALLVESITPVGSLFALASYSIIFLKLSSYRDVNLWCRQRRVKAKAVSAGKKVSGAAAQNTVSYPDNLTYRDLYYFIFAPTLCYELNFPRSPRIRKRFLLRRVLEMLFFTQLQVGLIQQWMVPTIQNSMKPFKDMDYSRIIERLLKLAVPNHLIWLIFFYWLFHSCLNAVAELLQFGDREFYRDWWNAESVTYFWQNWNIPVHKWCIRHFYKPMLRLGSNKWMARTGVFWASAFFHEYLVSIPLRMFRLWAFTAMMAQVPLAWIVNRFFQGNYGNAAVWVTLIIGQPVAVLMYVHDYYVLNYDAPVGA

[22] = Genotoxicity in micronucleus by micronucleus assay
[23] = tested on: Rattus norvegicus; assay: Toxicity in diet induced obese Sprague-Dawley rat model assessed as change in liver weight administered orally after 22 days; type: organism-based; settings: in vivo, po, 528 h
[24] = tested on: Rattus norvegicus; assay: Antiobesity activity in po dosed diet induced obese Sprague-Dawley rat model assessed as reduction in plasma triglycerides level administered qd for 3 weeks measured on day 21; type: functional, organism-based
[25] = tested on: Rattus norvegicus; assay: Antiobesity activity in diet induced obese Sprague-Dawley rat model assessed as reduction in total cholesterol level at 50 mg/kg, po qd for 3 weeks measured on day 21; type: functional, organism-based; design: dose 50 mg/kg
[26] = tested on: Rattus norvegicus; assay: Antiobesity activity in po dosed diet induced obese Sprague-Dawley rat model assessed as reduction in weight gain administered qd for 3 weeks relative to vehicle treated control; type: functional, organism-based
[27] = tested on: Rattus norvegicus; assay: Antiobesity activity in diet induced obese Sprague-Dawley rat model assessed as decrease in fat pad mass at 50 mg/kg, po qd for 3 weeks measured on day 21 relative to vehicle treated control; type: functional, organism-based; design: dose 50 mg/kg
[28] = Half life in Wistar rat at 5 mg/kg, iv; type: ADME, organism-based; design: dose 5 mg/kg, route intravenous; settings: in vivo
[29] = tested on: Rattus norvegicus; assay: Cmax in diet induced obese Sprague-Dawley rat model at 50 mg/kg, po qd for 3 weeks measured on day 21; type: ADME, organism-based; design: dose 50 mg/kg, route oral; settings: in vivo, 504 h
[30] = tested on: Salmonella typhimurium; assay: Mutagenic activity in Salmonella Typhimurium by Ames test; type: toxicity, organism-based; settings: salmonella enterica subsp. enterica serovar typhimurium
[31] = tested on: Rattus norvegicus; assay: Toxicity in diet induced obese Sprague-Dawley rat model assessed as change in heart weight administered orally after 22 days; type: organism-based; settings: in vivo, po, 528 h
[32] = Oral bioavailability in Wistar rat at 50 mg/kg; type: ADME, organism-based; settings: in vivo

## CCCn1[nH]c(=O)c2cc(NC(=O)c3nc(-c4ccccc4)oc3C(F)(F)F)ccc21
[1]
  solubility: Insoluble

## COCCN(C)c1ccc(NC(=O)c2nc(-c3ccccc3)oc2C(F)(F)F)cn1
[2]
  Activity: 4%
[3]
  solubility kinetic: 1 µg/mL (≈ 2.38 µM)
[4]
  Activity: Toxic
[5]
  AUC: 47200 ng·h/mL
[6]
  Cmax: 10200 ng/mL
[7]
  Vd: 1.6 L/kg
[8]
  Activity: 8%
[9]
  solubility: 770 µg/mL (≈ 1830 µM)
[10]
  Cmax: 7.8 µM
[11]
  Activity: 64%
[12]
  fraction unbound: 0.015
[13]
  Activity: Active
[14]
  Activity: Non-toxic
[15]
  Activity: Non-toxic
[16]
  Activity: Non-toxic
[17]
  Activity: inactive
[18]
  Cmax: 2.6 µM
[19]
  AUC: 6160 ng·h/mL
[20]
  Tmax: 1 h
[21]
  IC50: 120 nM
[22]
  Activity: Non-toxic
[23]
  Activity: Non-toxic
[24]
  Activity: Dose-dependent effect
[25]
  Activity: Active
[26]
  Activity: Dose-dependent effect
[27]
  Activity: Active
[28]
  half-life: 1.95 h
[29]
  Cmax: 12.2 µM
[30]
  Activity: Non-toxic
[31]
  Activity: Non-toxic
[32]
  bioavailability: 77%
